Assay results as given in patent US5849259A, “3-,8-substituted deuteroporphyrin derivatives, pharmaceutical agents containing the latter and process for their production” (priority 1992, dated 1998).

Legend:
[1] = tested on: DMBA-induced breast cancer; experiment: Signal intensity change in tissues of rats with DMBA-induced breast cancer, Bruker Biospec 2.35 Tesla, MSVE; type: in vivo; set-up: key to enhancement, Tumor / enhancement, Liver / enhancement, Kidneys / enhancement, Muscle: signal intensity relative to an internal standard
Procedure: b) On a Bruker Biospec nuclear spin tomograph (2.35 Tesla), the signal intensity change in various tissues of rats with a DMBA-induced breast cancer was studied after i.v. administration of 0.05 mmol/kg or 0.1 mmol of the compound of example 1c (20 mmol/l, pH 7.2; 37° C. in bidistilled water). The measurements took place with a multi slice variable echo sequence (MSVE). Imaging parameters: TR: 400 ms, TE: 25 ms, layer thickness: 4 mm, number of averages: 4/slice, matrix 256^2.
After a preliminary image, 0.05 mmol/kg or 0.1 mmol/kg of the substance was administered and the signal intensity change (relative to an internal standard) was studied.
The ^1 H-NMR images of the DMBA-induced breast cancer after administration of 0.1 mmol/kg i.v. after 5 minutes or 3 or 24 hours p.i. are reproduced in FIG. 1.

[2] = tested on: HT29 and WiDr colon cancer; experiment: Signal intensity change in tissues of tumor-bearing (HT29 and WiDr colon cancer) nude mice, example 1c, 0.5 mmol/kg; type: in vivo, nude mice (Balb/c nu/nu); conditions: 0.5 mmol/kg i.v.
Procedure: d) On a Bruker Biospec nuclear spin tomograph (2.35 Tesla), the signal intensity change in various tissues of tumor-bearing (HT29 and WiDr colon cancer) nude mice (Balb/c nu/nu) was studied after i.v. administration of 0.5 mmol/kg of the compound of example 1c (10 mmol/l, pH 7.2; 37° C. in bidistilled water). The measurement takes place with a multi slice single echo sequence (MSSE). Imaging parameters: TR: 400 ms, TE: 30 ms, layer thickness: 4 mm, number of averages: 4/slice, matrix 256^2. After a preliminary image, 0.5 mmol/kg of the substance was administered and the signal intensity change studied up to 180 minutes p.i.

N,N'-Bis[9-carboxylato-2,5,8-tris(carboxylatomethyl)-2,5,8-triazanonyl-carbamoyl]-mesoporphyrin-IX-13,17-diamide, digadolinium complex, disodium salt [Example 1c]
signal intensity change, kidneys ([1]; 0.05 mmol/kg i.v.): stronger signal intensity change | signal intensity change, muscle ([1]; 0.05 or 0.1 mmol/kg i.v., up to 24 hours p.i.): only a slight change | enhancement, Kidneys ([1]; 1 min, 0.1 mmol/kg i.v.): 1.16 | enhancement, Liver ([1]; 1 min, 0.1 mmol/kg i.v.): 1.55 | enhancement, Muscle ([1]; 1 min, 0.1 mmol/kg i.v.): 1.46 | enhancement, Tumor ([1]; 1 min, 0.1 mmol/kg i.v.): 2.48 | enhancement, Kidneys ([1]; 5 min, 0.05 mmol/kg i.v.): 2.57 | enhancement, Liver ([1]; 5 min, 0.05 mmol/kg i.v.): 1.48 | enhancement, Muscle ([1]; 5 min, 0.05 mmol/kg i.v.): 1.34 | enhancement, Tumor ([1]; 5 min, 0.05 mmol/kg i.v.): 1.88 | signal intensity change, liver tissue and tumors ([1]; 5 minutes p.i., 0.05 or 0.1 mmol/kg i.v.): marked signal intensity increase | enhancement, Kidneys ([1]; 15 min, 0.05 mmol/kg i.v.): 2.81 | enhancement, Liver ([1]; 15 min, 0.05 mmol/kg i.v.): 1.29 | enhancement, Muscle ([1]; 15 min, 0.05 mmol/kg i.v.): 1.26 | enhancement, Tumor ([1]; 15 min, 0.05 mmol/kg i.v.): 1.97 | enhancement, Kidneys ([1]; 15 min, 0.1 mmol/kg i.v.): 2.36 | enhancement, Liver ([1]; 15 min, 0.1 mmol/kg i.v.): 1.61 | enhancement, Muscle ([1]; 15 min, 0.1 mmol/kg i.v.): 1.30 | enhancement, Tumor ([1]; 15 min, 0.1 mmol/kg i.v.): 2.40 | enhancement, Kidneys ([1]; 26 min, 0.1 mmol/kg i.v.): 2.33 | enhancement, Liver ([1]; 26 min, 0.1 mmol/kg i.v.): 1.45 | enhancement, Muscle ([1]; 26 min, 0.1 mmol/kg i.v.): 1.37 | enhancement, Tumor ([1]; 26 min, 0.1 mmol/kg i.v.): 2.41 | enhancement, Kidneys ([1]; 30 min, 0.05 mmol/kg i.v.): 2.94 | enhancement, Liver ([1]; 30 min, 0.05 mmol/kg i.v.): 1.42 | enhancement, Muscle ([1]; 30 min, 0.05 mmol/kg i.v.): 1.22 | enhancement, Tumor ([1]; 30 min, 0.05 mmol/kg i.v.): 1.71 | enhancement, Kidneys ([1]; 40 min, 0.1 mmol/kg i.v.): 2.38 | enhancement, Liver ([1]; 40 min, 0.1 mmol/kg i.v.): 1.51 | enhancement, Muscle ([1]; 40 min, 0.1 mmol/kg i.v.): 1.23 | enhancement, Tumor ([1]; 40 min, 0.1 mmol/kg i.v.): 2.34 | enhancement, Kidneys ([1]; 45 min, 0.05 mmol/kg i.v.): 2.84 | enhancement, Liver ([1]; 45 min, 0.05 mmol/kg i.v.): 1.49 | enhancement, Muscle ([1]; 45 min, 0.05 mmol/kg i.v.): 1.12 | enhancement, Tumor ([1]; 45 min, 0.05 mmol/kg i.v.): 1.71 | enhancement, Kidneys ([1]; 60 min, 0.05 mmol/kg i.v.): 2.53 | enhancement, Liver ([1]; 60 min, 0.05 mmol/kg i.v.): 1.52 | enhancement, Muscle ([1]; 60 min, 0.05 mmol/kg i.v.): 1.10 | enhancement, Tumor ([1]; 60 min, 0.05 mmol/kg i.v.): 1.50 | enhancement, Kidneys ([1]; 60 min, 0.1 mmol/kg i.v.): 1.86 | enhancement, Liver ([1]; 60 min, 0.1 mmol/kg i.v.): 1.36 | enhancement, Muscle ([1]; 60 min, 0.1 mmol/kg i.v.): 1.23 | enhancement, Tumor ([1]; 60 min, 0.1 mmol/kg i.v.): 2.34 | enhancement, Kidneys ([1]; 71 min, 0.1 mmol/kg i.v.): 1.66 | enhancement, Liver ([1]; 71 min, 0.1 mmol/kg i.v.): 1.62 | enhancement, Muscle ([1]; 71 min, 0.1 mmol/kg i.v.): 1.17 | enhancement, Tumor ([1]; 71 min, 0.1 mmol/kg i.v.): 2.36 | enhancement, Kidneys ([1]; 75 min, 0.05 mmol/kg i.v.): 2.47 | enhancement, Liver ([1]; 75 min, 0.05 mmol/kg i.v.): 1.50 | enhancement, Muscle ([1]; 75 min, 0.05 mmol/kg i.v.): 1.04 | enhancement, Tumor ([1]; 75 min, 0.05 mmol/kg i.v.): 1.71 | enhancement, Kidneys ([1]; 85 min, 0.1 mmol/kg i.v.): 1.64 | enhancement, Liver ([1]; 85 min, 0.1 mmol/kg i.v.): 1.48 | enhancement, Muscle ([1]; 85 min, 0.1 mmol/kg i.v.): 1.32 | enhancement, Tumor ([1]; 85 min, 0.1 mmol/kg i.v.): 2.39 | enhancement, Kidneys ([1]; 90 min, 0.05 mmol/kg i.v.): 2.15 | enhancement, Liver ([1]; 90 min, 0.05 mmol/kg i.v.): 1.53 | enhancement, Muscle ([1]; 90 min, 0.05 mmol/kg i.v.): 1.11 | enhancement, Tumor ([1]; 90 min, 0.05 mmol/kg i.v.): 1.62 | enhancement, Kidneys ([1]; 105 min, 0.05 mmol/kg i.v.): 2.63 | enhancement, Liver ([1]; 105 min, 0.05 mmol/kg i.v.): 1.63 | enhancement, Muscle ([1]; 105 min, 0.05 mmol/kg i.v.): 1.07 | enhancement, Tumor ([1]; 105 min, 0.05 mmol/kg i.v.): 1.75 | enhancement, Kidneys ([1]; 115 min, 0.1 mmol/kg i.v.): 2.43 | enhancement, Liver ([1]; 115 min, 0.1 mmol/kg i.v.): 1.62 | enhancement, Muscle ([1]; 115 min, 0.1 mmol/kg i.v.): 1.23 | enhancement, Tumor ([1]; 115 min, 0.1 mmol/kg i.v.): 2.38 | enhancement, Kidneys ([1]; 150 min, 0.1 mmol/kg i.v.): 2.27 | enhancement, Liver ([1]; 150 min, 0.1 mmol/kg i.v.): 1.48 | enhancement, Muscle ([1]; 150 min, 0.1 mmol/kg i.v.): 1.17 | enhancement, Tumor ([1]; 150 min, 0.1 mmol/kg i.v.): 2.31 | enhancement, Kidneys ([1]; 160 min, 0.05 mmol/kg i.v.): 2.38 | enhancement, Liver ([1]; 160 min, 0.05 mmol/kg i.v.): 1.47 | enhancement, Muscle ([1]; 160 min, 0.05 mmol/kg i.v.): 1.07 | enhancement, Tumor ([1]; 160 min, 0.05 mmol/kg i.v.): 1.69 | enhancement, Kidneys ([1]; 180 min, 0.05 mmol/kg i.v.): 2.54 | enhancement, Liver ([1]; 180 min, 0.05 mmol/kg i.v.): 1.57 | enhancement, Muscle ([1]; 180 min, 0.05 mmol/kg i.v.): 1.02 | enhancement, Tumor ([1]; 180 min, 0.05 mmol/kg i.v.): 1.67 | enhancement, Kidneys ([1]; 180 min, 0.1 mmol/kg i.v.): 2.18 | enhancement, Liver ([1]; 180 min, 0.1 mmol/kg i.v.): 1.59 | enhancement, Muscle ([1]; 180 min, 0.1 mmol/kg i.v.): 1.22 | enhancement, Tumor ([1]; 180 min, 0.1 mmol/kg i.v.): 2.38 | enhancement, Kidneys ([1]; 24 hours, 0.05 mmol/kg i.v.): 1.17 | enhancement, Liver ([1]; 24 hours, 0.05 mmol/kg i.v.): 0.93 | enhancement, Muscle ([1]; 24 hours, 0.05 mmol/kg i.v.): 1.07 | enhancement, Tumor ([1]; 24 hours, 0.05 mmol/kg i.v.): 1.31 | enhancement, Kidneys ([1]; 24 hours, 0.1 mmol/kg i.v.): 0.94 | enhancement, Liver ([1]; 24 hours, 0.1 mmol/kg i.v.): 1.33 | enhancement, Muscle ([1]; 24 hours, 0.1 mmol/kg i.v.): 1.15 | enhancement, Tumor ([1]; 24 hours, 0.1 mmol/kg i.v.): 2.02 | signal intensity change, liver tissue and both tumors ([2]; 5 minutes p.i.): marked signal intensity increase | signal intensity change, muscle ([2]; reference tissue): smaller signal increase
